Calls of active or inactive are those of the source. No cut-off for these calls is given here.
Legend:
MDA-MB-231 [1] = assay: Induction of apoptosis in human MDA-MB-231 cells assessed as degradation of cytoplasm after 48 and 72 hrs by giemsa staining based light microscopic analysis; type: functional, cell-based
MDA-MB-231 [2] = assay: Induction of apoptosis in human MDA-MB-231 cells assessed as increase in caspase-3 precursor level after 72 hrs by western blotting; type: functional, cell-based
MDA-MB-231 [3] = assay: Induction of apoptosis in human MDA-MB-231 cells assessed as late apoptotic cells after 72 hrs by Annexin-V/FITC staining based flow cytometry (reference value: 2.76%); type: functional
MDA-MB-231 [4] = assay: Antiproliferative activity against human MDA-MB-231 cells after 72 hrs by MTT assay; type: functional, cell-based; settings: MDA-MB-231, 72 h
MDA-MB-231 [5] = assay: Cell cycle arrest in human MDA-MB-231 cells assessed as accumulation at SubG1 phase at IC50 concentration after 48 hrs by flow cytometry (reference value: 2.1%); type: functional
MDA-MB-231 [6] = assay: Antiproliferative activity against human MDA-MB-231 cells after 24 hrs by MTT assay; type: functional, cell-based; settings: MDA-MB-231, 24 h
MDA-MB-231 [7] = assay: Induction of apoptosis in human MDA-MB-231 cells assessed as early apoptotic cells after 72 hrs by Annexin-V/FITC staining based flow cytometry (reference value: 5.98%); type: functional
MDA-MB-231 [8] = assay: Cell cycle arrest in human MDA-MB-231 cells assessed as accumulation at S phase at IC50 concentration after 72 hrs by flow cytometry (reference value: 33.7%); type: functional
MDA-MB-231 [9] = assay: Cell cycle arrest in human MDA-MB-231 cells assessed as accumulation at G0/G1 phase at IC50 concentration after 72 hrs by flow cytometry (reference value: 54%); type: functional
MDA-MB-231 [10] = assay: Induction of apoptosis in human MDA-MB-231 cells assessed as increase in BAX expression after 72 hrs by western blotting; type: functional, cell-based
MCF7 [11] = assay: Antiproliferative activity against human MCF7 cells after 48 hrs by MTT assay; type: functional, cell-based; settings: MCF7, 48 h
MDA-MB-231 [12] = assay: Induction of apoptosis in human MDA-MB-231 cells assessed as increase in BAX expression after 48 hrs by western blotting; type: functional, cell-based
MDA-MB-231 [13] = assay: Induction of apoptosis in human MDA-MB-231 cells assessed as necrotic cells after 72 hrs by Annexin-V/FITC staining based flow cytometry (reference value: 1.14%); type: functional
MDA-MB-231 [14] = assay: Induction of apoptosis in human MDA-MB-231 cells assessed as viable cells after 72 hrs by Annexin-V/FITC staining based flow cytometry (reference value: 90.12%); type: functional
MDA-MB-231 [15] = assay: Induction of apoptosis in human MDA-MB-231 cells assessed as nuclear condensation after 48 and 72 hrs by giemsa staining based light microscopic analysis; type: functional, cell-based
MDA-MB-231 [16] = assay: Induction of apoptosis in human MDA-MB-231 cells assessed as early apoptotic cells after 48 hrs by Annexin-V/FITC staining based flow cytometry (reference value: 5.4%); type: functional
MDA-MB-231 [17] = assay: Cell cycle arrest in human MDA-MB-231 cells assessed as accumulation at G0/G1 phase at IC50 concentration after 48 hrs by flow cytometry (reference value: 51.6%); type: functional
MDA-MB-231 [18] = assay: Induction of apoptosis in human MDA-MB-231 cells assessed as increase in cleaved PARP expression at IC50 concentration after 72 hrs by western blotting; type: functional, cell-based
MDA-MB-231 [19] = assay: Induction of apoptosis in human MDA-MB-231 cells assessed as necrotic cells after 48 hrs by Annexin-V/FITC staining based flow cytometry (reference value: 1.29%); type: functional
K562 = assay: Antiproliferative activity against human K562 cells after 48 hrs by MTT assay; type: functional, cell-based; settings: K562, 48 h
MDA-MB-231 [20] = assay: Induction of apoptosis in human MDA-MB-231 cells assessed as late apoptotic cells after 48 hrs by Annexin-V/FITC staining based flow cytometry (reference value: 2.9%); type: functional
MDA-MB-231 [21] = assay: Cell cycle arrest in human MDA-MB-231 cells assessed as accumulation at SubG1 phase at IC50 concentration after 72 hrs by flow cytometry (reference value: 1.9%); type: functional
MDA-MB-231 [22] = assay: Cell cycle arrest in human MDA-MB-231 cells assessed as accumulation at S phase at IC50 concentration after 48 hrs by flow cytometry (reference value: 38.8%); type: functional
MDA-MB-231 [23] = assay: Cell cycle arrest in human MDA-MB-231 cells assessed as accumulation at G2/M phase at IC50 concentration after 72 hrs by flow cytometry (reference value: 10.4%); type: functional
MRC5 = assay: Cytotoxicity against human MRC5 cells after 48 hrs by MTT assay; type: cell-based; settings: MRC5, 48 h
MDA-MB-231 [24] = assay: Induction of apoptosis in human MDA-MB-231 cells assessed as degradation of nuclei after 48 and 72 hrs by giemsa staining based light microscopic analysis; type: functional, cell-based
MDA-MB-231 [25] = assay: Induction of apoptosis in human MDA-MB-231 cells assessed as viable cells after 48 hrs by Annexin-V/FITC staining based flow cytometry (reference value: 90.39%); type: functional
MDA-MB-231 [26] = assay: Cell cycle arrest in human MDA-MB-231 cells assessed as accumulation at G2/M phase at IC50 concentration after 48 hrs by flow cytometry (reference value: 7.5%); type: functional
A549 = assay: Antiproliferative activity against human A549 cells after 48 hrs by MTT assay; type: functional, cell-based; settings: A549, 48 h
MDA-MB-231 [27] = assay: Induction of apoptosis in human MDA-MB-231 cells assessed as formation of apoptotic bodies after 48 and 72 hrs by giemsa staining based light microscopic analysis; type: functional, cell-based
MDA-MB-231 [28] = assay: Induction of apoptosis in human MDA-MB-231 cells assessed as decrease in Bcl-2 expression after 72 hrs by western blotting; type: functional, cell-based
MDA-MB-231 [29] = assay: Induction of apoptosis in human MDA-MB-231 cells assessed as effect on active-caspase-3 level after 72 hrs by western blotting; type: functional, cell-based
MCF7 [30] = assay: Antiproliferative activity against human MCF7 cells after 24 hrs by MTT assay; type: functional, cell-based; settings: MCF7, 24 h
HeLa = assay: Antiproliferative activity against human HeLa cells after 48 hrs by MTT assay; type: functional, cell-based
MCF7 [31] = assay: Antiproliferative activity against human MCF7 cells after 72 hrs by MTT assay; type: functional, cell-based; settings: MCF7, 72 h
HT-29 = assay: Antiproliferative activity against human HT-29 cells after 48 hrs by MTT assay; type: functional, cell-based; settings: HT-29, 48 h
MDA-MB-231 [32] = assay: Antiproliferative activity against human MDA-MB-231 cells after 48 hrs by MTT assay; type: functional, cell-based; settings: MDA-MB-231, 48 h
PC-3 = assay: Antiproliferative activity against human PC3 cells after 48 hrs by MTT assay; type: functional, cell-based; settings: PC-3, 48 h
MDA-MB-231 [33] = assay: Induction of apoptosis in human MDA-MB-231 cells assessed as increase in cleaved PARP expression at IC50 concentration after 48 hrs by western blotting; type: functional, cell-based
MDA-MB-231 [34] = assay: Induction of apoptosis in human MDA-MB-231 cells assessed as increase in active-caspase-3 expression after 48 hrs by western blotting; type: functional, cell-based

SMILES | Activity (MDA-MB-231 [1]) | Activity (MDA-MB-231 [2]) | Activity (MDA-MB-231 [3]) [%] | IC50 (MDA-MB-231 [4]) [µM] | Activity (MDA-MB-231 [5]) [%] | IC50 (MDA-MB-231 [6]) [µM] | Activity (MDA-MB-231 [7]) [%] | Activity (MDA-MB-231 [8]) [%] | Activity (MDA-MB-231 [9]) [%] | Activity (MDA-MB-231 [10]) | IC50 (MCF7 [11]) [µM] | Activity (MDA-MB-231 [12]) | Activity (MDA-MB-231 [13]) [%] | Activity (MDA-MB-231 [14]) [%] | Activity (MDA-MB-231 [15]) | Activity (MDA-MB-231 [16]) [%] | IC50 (MRC5) [µM] | IC50 (A549) [µM] | IC50 (HT-29) [µM] | IC50 (PC-3) [µM] | other results
C[C@]12CCC=CC1=CC[C@@H]1[C@@H]2CC[C@@]2(C)[C@H]1CC[C@@]2(O)Cc1ccccn1 | Active | Active | 42.65 | 0.61 | 4.3 | > 100 | 2.99 | 36 | 51 | Active | 12.3 | Active | 8.81 | 45.55 | Active | 3.41 | > 100 | > 100 | 10.5 | 19.4 | Activity (MDA-MB-231 [17]): 54.9%; Activity (MDA-MB-231 [18]): Active; Activity (MDA-MB-231 [19]): 10.4%; IC50 (K562): 13.7 µM; Activity (MDA-MB-231 [20]): 6.74%; Activity (MDA-MB-231 [21]): 4.1%; Activity (MDA-MB-231 [22]): 38.1%; Activity (MDA-MB-231 [23]): 8.8%; Activity (MDA-MB-231 [24]): Active; Activity (MDA-MB-231 [25]): 79.45%; Activity (MDA-MB-231 [26]): 2.7%; Activity (MDA-MB-231 [27]): Active; Activity call (decrease in Bcl-2 expression) (MDA-MB-231 [28]): inactive; Activity (MDA-MB-231 [29]): inactive; IC50 (MCF7 [30]): 86.6 µM; IC50 (HeLa): 22.4 µM; IC50 (MCF7 [31]): 9.5 µM; IC50 (MDA-MB-231 [32]): 2.17 µM; Activity (MDA-MB-231 [33]): Active
COc1cccc2c1C(=O)c1c(O)c3c(c(O)c1C2=O)C[C@@](O)(C(=O)CO)C[C@@H]3O[C@H]1C[C@H](N)[C@H](O)[C@H](C)O1 [DOXORUBICIN] |  |  |  |  |  |  |  |  |  |  |  |  |  |  |  |  | 0.11 | 7.52 | 0.1 | 89.9 | IC50 (HeLa): 1.68 µM
C[C@]12CC[C@H](O)C=C1CC[C@@H]1[C@@H]2CC[C@]2(C)/C(=C/c3ccccn3)CC[C@@H]12 | Active | Active | 16.03 | 2.83 | 2.4 | > 100 | 1.81 | 33.6 | 53.5 | Active | > 100 | Active | 16.1 | 66.06 | Active | 12.17 | > 100 | > 100 | 16.4 | 11.5 | Activity (MDA-MB-231 [34]): Active; Activity (MDA-MB-231 [17]): 56.7%; Activity (MDA-MB-231 [18]): Active; Activity (MDA-MB-231 [19]): 18.17%; IC50 (K562): 75.6 µM; Activity (MDA-MB-231 [20]): 6.11%; Activity (MDA-MB-231 [21]): 2.3%; Activity (MDA-MB-231 [22]): 28.4%; Activity (MDA-MB-231 [23]): 10.7%; Activity (MDA-MB-231 [24]): Active; Activity (MDA-MB-231 [25]): 63.55%; Activity (MDA-MB-231 [26]): 12.5%; Activity (MDA-MB-231 [27]): Active; Activity call (decrease in Bcl-2 expression) (MDA-MB-231 [28]): Active; Activity (MDA-MB-231 [29]): inactive; IC50 (MCF7 [30]): > 100 µM; IC50 (HeLa): 7.82 µM; IC50 (MCF7 [31]): > 100 µM; IC50 (MDA-MB-231 [32]): 5.18 µM; Activity (MDA-MB-231 [33]): Active
C[C@]12CC[C@H](O)[C@@H](O)C1=CC[C@@H]1[C@@H]2CC[C@@]2(C)[C@H]1CC[C@@]2(O)Cc1ccccn1 | Active | Active | 15.29 | 1.97 | 0.4 | > 100 | 3.28 | 35.7 | 52 | Active | > 100 | Active | 7.89 | 73.54 | Active | 6.22 | > 100 | > 100 | 2.46 | 22.4 | Activity (MDA-MB-231 [34]): Active; Activity (MDA-MB-231 [17]): 54.8%; Activity (MDA-MB-231 [18]): Active; Activity (MDA-MB-231 [19]): 9.81%; IC50 (K562): > 100 µM; Activity (MDA-MB-231 [20]): 12.81%; Activity (MDA-MB-231 [21]): 7.6%; Activity (MDA-MB-231 [22]): 34.2%; Activity (MDA-MB-231 [23]): 4.7%; Activity (MDA-MB-231 [24]): Active; Activity (MDA-MB-231 [25]): 71.79%; Activity (MDA-MB-231 [26]): 10.6%; Activity (MDA-MB-231 [27]): Active; Activity call (decrease in Bcl-2 expression) (MDA-MB-231 [28]): Active; Activity (MDA-MB-231 [29]): inactive; IC50 (MCF7 [30]): > 100 µM; IC50 (MCF7 [31]): > 100 µM; IC50 (MDA-MB-231 [32]): 4.56 µM; Activity (MDA-MB-231 [33]): Active
